Assay [1] has as its system Pu22T14T23 (DNA, G4) TGAGGGTGGGTAGGGTGGGTAA
Put plainly: 1H NMR titration and NOESY. The conditions noted are these: 70 mM KCl.

Assay [2] deals with d(AAGAATTCTT)2 ("AATT") (DNA, duplex) AAGAATTCTT
Put plainly: 1H and 31P NMR titration. The following applies: 0.1 M NaCl; 10 mM sodium phosphate pH 7.0, 15 °C; external interaction, no intercalation.

The subject of assay [3] is Pu22T14T23 (DNA, G4) TGAGGGTGGGTAGGGTGGGTAA
Put plainly: ligand fluorescence titration, EQUISPEC fit. The conditions noted are these: 3 µM ligand, 1:1 model.

Assay [4] deals with d(CGTACG)2 ("CG") (DNA, duplex) CGTACG. Put plainly: 1H and 31P NMR titration. The conditions noted are these: 0.1 M NaCl; 10 mM sodium phosphate pH 7.0, 15 °C; partial intercalation.
Assay [5] deals with Pu22T14T23 (DNA, G4) TGAGGGTGGGTAGGGTGGGTAA
Kind of assay: reverse fluorescence titration (DNA titrated with ligand), EQUISPEC fit. The conditions noted are these: 70 mM KCl; 25 mM phosphate pH 6.9, 20 °C; 2.4 µM DNA; overall constant of 1:2 model.

Assay [6] relates to d(TTAGGGT)4 (DNA, G4) TTAGGGT. Kind of assay: ligand fluorescence titration, EQUISPEC fit. The following applies: 3 µM ligand, 1:1 model.
In assay [7] the test system is d(TTAGGGT)4 (DNA, G4) TTAGGGT. Kind of assay: 1H NMR titration and NOESY. The following applies: 150 mM KCl; 25 mM K-phosphate pH 6.7, 1 mM EDTA, 25 °C; sites A3-G4 and over G6.
Setting [8] is: 70 mM KCl, 25 mM phosphate pH 6.9, 20 °C.

Results on 2 molecules are retold here after publication PMC7887208 (2021).

The structures appear in SMILES notation.

Turning to `C[C@]1(c2nc3c(C(N)=O)cccc3[nH]2)CCCN1`, in assay [1] (25 mM KH2PO4 pH 6.9, 25 °C, no shift change, no NOE), the binding result is reported as “no”.

As for `NC(=O)Cn1ccc2ccc(-c3ccc(CN4CCCC4)cc3)nc21`, the binding entry in assay [2] is listed as “weak”; in assay [3] (PBS (Na+; composition not given), PBS, 20 °C, stated similar to K+ buffer) it was “yes”; in assay [4] it was “weak”; in assay [1] (25 mM phosphate pH 6.9, 25 °C, stacks on 5' and 3' end tetrads) it was “yes”; in assay [7], “yes”. The Kb in assay [3] (setting [8]) is on record as ~ 10^6.1 M^-1; in assay [6] (setting [8]), ~ 10^6.1 M^-1; in assay [6] (PBS (Na+; composition not given), PBS, 20 °C, printed as d(TTAGGG)4) it was ~ 10^5.1 M^-1. Further, the “overall Kb” value in assay [5] is given as 10^12.8 M^-2.
